Key:
preprorenin mRNA = assay: RT-PCR and Southern blotting, renal cortex; assay type: in vivo, rat (SHR)
Description: (§1) At different time points after the single injection of β1-AS-ODN or inverted ODN, rats were euthanized, and the renal cortex was dissected from the left kidneys, immediately dipped into RNA later tissue storage buffer (Ambion), and stored at −20° C. Total RNA was extracted with RNAwiz reagent (Ambion) and quantified by spectrophotometer. RNA samples from 4 to 5 rats from each time point were pooled. RNA (5 μg) was digested by DNase I and reverse-transcribed by Superscript reverse transcriptase (GIBCO BRL) at 42° C. for 50 min. and 1/20 of the reverse transcription (RT) product was used to run a polymerase chain reaction (PCR) for 20 cycles. PCR primers for β1-AR were 5′-[…]-3′ (SEQ ID NO:199) (forward) and 5′-[…]-3′ (SEQ ID NO:200) (reverse) and yielded products of 432 bp, which spanned the AUG start codon. Primers for preprorenin were 5′-[…]-3′ (SEQ ID NO:201) (forward) and 5′-[…]-3′ (SEQ ID NO:202) (reverse) and yielded products of 362 bp.
(§2) Primers for GAPDH were 5′-[…]-3′ (SEQ ID NO:203) (forward) and 5′-[…]-3′ (SEQ ID NO:204) (reverse) and yielded products of 505 bp (Jo et al., 1996). RT-PCR products were subjected to Southern blotting, hybridized with psoralen-biotin-labeled cDNA probes, and detected with nonisotopic kits (Ambion). After the membranes had been exposed to x-ray films, the intensity of β1-AR and preprorenin mRNAs was quantified by densitometry and normalized with GAPDH mRNA levels. The studies were repeated at least twice.

β1-AR mRNA = assay: RT-PCR and Southern blotting, renal cortex; assay type: in vivo, rat (SHR); conditions: 0.5 mg/kg i.v., semiquantitative RT-PCR
Description: as §1, §2

β1-ARs = target: T1, β1-ARs (Rattus norvegicus, UniProt P18090); conditions: even after 18 days, single i.v. injection (Zhang et al., 1999); cited from earlier work
T1 construct: membranes were prepared from heart ventricles as previously described; from tissue; host or cells: heart ventricles of SHR
T1 sequence (P18090 whole entry): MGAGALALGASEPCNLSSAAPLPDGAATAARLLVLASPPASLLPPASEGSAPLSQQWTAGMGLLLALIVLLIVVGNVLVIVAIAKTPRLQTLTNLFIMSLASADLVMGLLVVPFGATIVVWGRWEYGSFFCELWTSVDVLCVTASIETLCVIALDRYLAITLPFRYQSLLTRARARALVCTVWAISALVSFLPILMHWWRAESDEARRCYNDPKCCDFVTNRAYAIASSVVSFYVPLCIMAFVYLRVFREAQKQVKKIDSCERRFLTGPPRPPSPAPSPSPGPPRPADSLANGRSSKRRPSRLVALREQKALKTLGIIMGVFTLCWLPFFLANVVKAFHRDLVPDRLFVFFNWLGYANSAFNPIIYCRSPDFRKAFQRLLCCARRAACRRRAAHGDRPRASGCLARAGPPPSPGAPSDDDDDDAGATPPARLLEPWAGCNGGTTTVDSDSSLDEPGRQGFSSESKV

5′-CCGCGCCCATGCCGA-3′ (phosphorothioate backbone, further chemistry not given here) [β1-AS-ODN, 15-mer antisense ODN targeted to the AUG start codon of rat β1-AR mRNA]
preprorenin mRNA level in renal cortex (preprorenin mRNA; 4 days after injection): 62 % of control
preprorenin mRNA decrease (preprorenin mRNA; by day 18): completely reversed
level of steady-state β1-AR mRNA in renal cortex (β1-AR mRNA): did not reduce
level of steady-state β1-AR mRNA in renal cortex (β1-AR mRNA; listed as AS-ODN): no reduction
decrease in ventricular β1-AR density (β1-ARs): 30-50%

— US6489307B1, “Antisense compositions targeted to β1-adrenoceptor-specific mRNA and methods of use” (University of Florida, priority 1998, dated 2002)
